Values quoted from earlier work in US11022607B2, “Compound-carrier systems for assays in nematodes” (Assistance Publique—Hôpitaux de Paris, priority 2013, dated 2021).

Test system: C. elegans
Settings: 25 ml of liposomes containing 50 mg of uranin; in 3 h

## O=C([O-])c1ccccc1-c1c2ccc(=O)cc-2oc2cc([O-])ccc12.[Na+].[Na+] [uranin]
  amount of fluorescent dye absorption, compared with worms administered dye by conventional methods: 100 fold
